Results from the NIST ThermoML archive (doi:10.1021/je100967k).

What was measured:
[1] = xn = mol fraction of the nth substance listed; details: 101 kPa, Liquid; for speed of sound: Pulse-echo method
[2] = refractive index (Na D-line) (dimensionless); xn = mol fraction of the nth substance listed; details: 101 kPa, Liquid, Standard Abbe refractometry

CN1CCCC1=O [N-methylpyrrolidone] + CCO
Details | mass density, [1] [kg/m3] | refractive index, [2] | speed of sound, [1] [m/s] | viscosity, [1] [mPa·s]
293.15 K, x1 = 0.0992 | 829.76 | 1.3797 | 1226.1 | 1.139
293.15 K, x1 = 0.1985 | 864.84 | 1.3953 | 1284.2 | 1.173
293.15 K, x1 = 0.2973 | 894.36 | 1.4089 | 1331.7 | 1.218
293.15 K, x1 = 0.3963 | 920.89 | 1.4209 | 1375.7 | 1.275
293.15 K, x1 = 0.4948 | 944.41 | 1.4313 | 1414.8 | 1.354
293.15 K, x1 = 0.5932 | 965 | 1.4406 | 1448.9 | 1.436
293.15 K, x1 = 0.6912 | 983.96 | 1.449 | 1480.7 | 1.524
293.15 K, x1 = 0.7897 | 1000.86 | 1.4563 | 1509.4 | 1.626
293.15 K, x1 = 0.8875 | 1016.79 | 1.4633 | 1537 | 1.726
293.15 K, x1 = 1 | 1032.87 | 1.4706 | 1565.3 | 1.858
303.15 K, x1 = 0.0992 | 820.98 | 1.376 | 1191.3 | 0.9625
303.15 K, x1 = 0.1985 | 855.96 | 1.3916 | 1248.9 | 0.986
303.15 K, x1 = 0.2973 | 885.42 | 1.4051 | 1295.9 | 1.033
303.15 K, x1 = 0.3963 | 911.91 | 1.4168 | 1338.9 | 1.09
303.15 K, x1 = 0.4948 | 935.43 | 1.4273 | 1377.6 | 1.15
303.15 K, x1 = 0.5932 | 955.97 | 1.4366 | 1411.4 | 1.22
303.15 K, x1 = 0.6912 | 974.94 | 1.4449 | 1442.9 | 1.292
303.15 K, x1 = 0.7897 | 991.85 | 1.4523 | 1471.4 | 1.371
303.15 K, x1 = 0.8875 | 1007.8 | 1.4593 | 1498.5 | 1.45
303.15 K, x1 = 1 | 1023.95 | 1.4664 | 1526.5 | 1.553
313.15 K, x1 = 0.0992 | 812.09 | 1.3717 | 1157 | 0.803
313.15 K, x1 = 0.1985 | 846.98 | 1.3872 | 1214.7 | 0.8276
313.15 K, x1 = 0.2973 | 876.39 | 1.4011 | 1260.3 | 0.867
313.15 K, x1 = 0.3963 | 902.87 | 1.4127 | 1302.5 | 0.9234
313.15 K, x1 = 0.4948 | 926.39 | 1.4234 | 1341 | 0.98
313.15 K, x1 = 0.5932 | 946.9 | 1.4329 | 1374.2 | 1.039
313.15 K, x1 = 0.6912 | 965.89 | 1.4411 | 1405.3 | 1.109
313.15 K, x1 = 0.7897 | 982.82 | 1.4484 | 1433.5 | 1.173
313.15 K, x1 = 0.8875 | 998.8 | 1.4552 | 1460.3 | 1.237
313.15 K, x1 = 1 | 1015.03 | 1.4621 | 1487.8 | 1.324
323.15 K, x1 = 0.0992 | 803.05 | 1.3677 | 1122.7 | 0.657
323.15 K, x1 = 0.1985 | 837.87 | 1.3837 | 1179.6 | 0.691
323.15 K, x1 = 0.2973 | 867.27 | 1.3974 | 1224.9 | 0.731
323.15 K, x1 = 0.3963 | 893.76 | 1.4089 | 1266.6 | 0.782
323.15 K, x1 = 0.4948 | 917.3 | 1.4195 | 1304.6 | 0.833
323.15 K, x1 = 0.5932 | 937.79 | 1.4289 | 1337.3 | 0.895
323.15 K, x1 = 0.6912 | 956.8 | 1.4372 | 1368.3 | 0.952
323.15 K, x1 = 0.7897 | 973.77 | 1.4443 | 1396.1 | 1.011
323.15 K, x1 = 0.8875 | 989.78 | 1.4512 | 1422.8 | 1.071
323.15 K, x1 = 1 | 1006.1 | 1.4576 | 1450.2 | 1.146
